Experimental data as given in ChEMBL document CHEMBL1201862, “PubChem BioAssay data set” (2004).
One block for each compound: values may come before it. The source made the active and inactive calls. Rule as the data show it, for most assays here: active = IC50 of 10 µM or less and inactive = more.

Key:
[1] = target: Melanin-concentrating hormone receptor 1 (Homo sapiens, UniProt Q99705); assay: Fluorescence-based counterscreen for antagonists of the G-protein coupled receptor 7 (GPR7): cell-based high throughput dose response assay to identify antagonists of the melanin-concentrating hormone receptor 1 (MCHR1).; type: functional
Melanin-concentrating hormone receptor 1, sequence (Q99705 whole entry): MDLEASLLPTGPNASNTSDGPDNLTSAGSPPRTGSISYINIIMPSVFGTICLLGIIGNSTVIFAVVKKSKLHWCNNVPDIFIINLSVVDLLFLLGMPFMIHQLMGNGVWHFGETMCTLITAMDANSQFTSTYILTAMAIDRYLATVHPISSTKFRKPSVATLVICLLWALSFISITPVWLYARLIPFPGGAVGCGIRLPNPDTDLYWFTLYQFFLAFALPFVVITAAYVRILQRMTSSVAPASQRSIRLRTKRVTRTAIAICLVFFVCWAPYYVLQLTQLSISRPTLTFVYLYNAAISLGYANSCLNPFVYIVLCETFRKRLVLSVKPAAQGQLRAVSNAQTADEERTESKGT

[2] = target: T1, Neuropeptide Y receptor type 1 (Homo sapiens, UniProt P25929); assay: NPY-Y1 receptor antagonist potency, dose response, cell-based (AID 1277); type: functional
T1 sequence (P25929 whole entry): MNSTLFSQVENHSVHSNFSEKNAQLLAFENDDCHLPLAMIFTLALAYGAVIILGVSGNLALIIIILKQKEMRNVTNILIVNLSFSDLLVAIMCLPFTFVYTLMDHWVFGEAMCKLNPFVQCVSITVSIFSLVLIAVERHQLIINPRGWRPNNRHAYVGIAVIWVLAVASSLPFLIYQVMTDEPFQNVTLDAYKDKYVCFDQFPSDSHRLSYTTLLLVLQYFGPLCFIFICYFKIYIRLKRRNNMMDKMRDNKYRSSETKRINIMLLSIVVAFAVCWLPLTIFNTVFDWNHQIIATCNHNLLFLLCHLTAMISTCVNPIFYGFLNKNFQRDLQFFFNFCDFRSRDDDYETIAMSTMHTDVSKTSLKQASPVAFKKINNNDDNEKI

[3] = target: T2, Neuropeptide Y receptor type 2 (Homo sapiens, UniProt P49146); assay: NPY-Y2 antagonist potency, selectivity check, dose response, counter-screen for NPY-Y1 antagonist project, cell-based (AID 1278); type: functional
T2 sequence (P49146 whole entry): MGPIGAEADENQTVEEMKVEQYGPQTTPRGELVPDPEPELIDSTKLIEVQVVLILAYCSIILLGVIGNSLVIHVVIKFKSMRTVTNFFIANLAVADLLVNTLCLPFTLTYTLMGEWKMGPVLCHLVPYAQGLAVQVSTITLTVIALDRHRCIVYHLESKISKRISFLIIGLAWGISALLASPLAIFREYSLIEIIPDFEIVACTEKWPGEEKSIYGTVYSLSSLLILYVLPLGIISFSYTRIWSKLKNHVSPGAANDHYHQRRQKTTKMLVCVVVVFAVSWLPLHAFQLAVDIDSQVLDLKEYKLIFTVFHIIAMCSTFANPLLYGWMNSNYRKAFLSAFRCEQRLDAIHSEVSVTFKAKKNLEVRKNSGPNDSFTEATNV

[4] = target: T3, Neuropeptides B/W receptor type 1 (Homo sapiens, UniProt P48145); assay: Fluorescence-based dose response cell-based high throughput screening assay to identify antagonists of the G-protein coupled receptor 7 (GPR7). [Related pubchem assays: 1952 (Screening assay (GPR7 antagonists).), 1880 (Summary AID.)]; type: functional
T3 sequence (P48145 whole entry): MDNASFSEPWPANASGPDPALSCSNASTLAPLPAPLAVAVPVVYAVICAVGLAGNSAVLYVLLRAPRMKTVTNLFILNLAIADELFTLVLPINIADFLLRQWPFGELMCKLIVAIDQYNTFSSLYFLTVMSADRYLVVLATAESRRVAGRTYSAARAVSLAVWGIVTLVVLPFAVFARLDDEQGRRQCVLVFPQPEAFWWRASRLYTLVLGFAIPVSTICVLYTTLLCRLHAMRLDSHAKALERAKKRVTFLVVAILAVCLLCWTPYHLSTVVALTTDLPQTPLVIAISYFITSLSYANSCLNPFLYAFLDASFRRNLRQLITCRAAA

[5] = target: T4, Estrogen receptor (Homo sapiens, UniProt P03372); assay: potentiators of ERα–SRC-1 coactivator binding, dose response, biochemical, TR-FRET, ERα LBD (AID 737)
T4 sequence (P03372 whole entry): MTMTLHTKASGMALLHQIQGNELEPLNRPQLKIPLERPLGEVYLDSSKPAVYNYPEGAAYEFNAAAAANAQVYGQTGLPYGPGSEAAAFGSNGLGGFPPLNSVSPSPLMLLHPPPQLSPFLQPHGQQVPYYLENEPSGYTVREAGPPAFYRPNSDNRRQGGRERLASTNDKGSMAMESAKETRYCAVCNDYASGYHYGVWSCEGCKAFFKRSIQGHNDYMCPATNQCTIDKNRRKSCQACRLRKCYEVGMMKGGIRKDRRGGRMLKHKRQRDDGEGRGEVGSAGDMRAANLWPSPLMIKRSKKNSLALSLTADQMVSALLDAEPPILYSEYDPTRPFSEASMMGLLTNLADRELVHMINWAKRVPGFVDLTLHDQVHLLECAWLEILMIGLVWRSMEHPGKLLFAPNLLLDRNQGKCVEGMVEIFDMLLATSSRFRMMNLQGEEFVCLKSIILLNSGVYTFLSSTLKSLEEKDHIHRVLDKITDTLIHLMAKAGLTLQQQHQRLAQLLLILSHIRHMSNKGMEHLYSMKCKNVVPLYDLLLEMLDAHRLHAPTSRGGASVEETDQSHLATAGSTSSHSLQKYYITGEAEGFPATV

[6] = target: T5, High affinity choline transporter 1 (Homo sapiens, UniProt Q9GZV3); assay: CHT inhibitors, dose response, cell-based, 5-point CRC, membrane potential dye (AID 504840); type: functional
T5 sequence (Q9GZV3 whole entry): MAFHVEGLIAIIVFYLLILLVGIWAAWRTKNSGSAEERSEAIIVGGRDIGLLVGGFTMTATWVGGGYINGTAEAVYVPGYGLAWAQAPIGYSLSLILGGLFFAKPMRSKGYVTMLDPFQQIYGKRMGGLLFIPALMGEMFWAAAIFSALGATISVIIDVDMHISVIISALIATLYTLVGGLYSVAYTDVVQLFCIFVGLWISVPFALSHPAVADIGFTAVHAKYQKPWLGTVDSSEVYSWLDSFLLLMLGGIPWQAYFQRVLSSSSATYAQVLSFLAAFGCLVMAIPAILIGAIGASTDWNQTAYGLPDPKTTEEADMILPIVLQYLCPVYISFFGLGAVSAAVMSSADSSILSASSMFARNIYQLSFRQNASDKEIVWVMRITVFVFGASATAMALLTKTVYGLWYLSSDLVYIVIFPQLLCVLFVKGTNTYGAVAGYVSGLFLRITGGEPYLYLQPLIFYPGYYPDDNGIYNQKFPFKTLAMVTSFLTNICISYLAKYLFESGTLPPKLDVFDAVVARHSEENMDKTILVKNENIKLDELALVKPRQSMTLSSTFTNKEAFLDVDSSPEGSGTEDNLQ

[7] = target: T6, Interleukin-8 (Homo sapiens, UniProt P10145); assay: Dose Response confirmation of uHTS small molecule hits for cystic fibrosis induced NFkb Inhibitors in a PAF-induced IL8 counterscreen.; type: functional; conditions: read-out: IC50_Mean
T6 sequence (P10145 whole entry): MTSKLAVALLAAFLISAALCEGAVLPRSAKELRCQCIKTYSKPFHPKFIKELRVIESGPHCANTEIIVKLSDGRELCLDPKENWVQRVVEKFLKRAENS

[8] = target: Sphingosine 1-phosphate receptor 1 (Homo sapiens, UniProt P21453); type: functional;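 also: Tango beta-arrestin reporter U2OS cells stimulated with S1P near its EC80; inhibitor potency meaning antagonism of receptor activation by the natural agonist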
Sphingosine 1-phosphate receptor 1, sequence (P21453 whole entry): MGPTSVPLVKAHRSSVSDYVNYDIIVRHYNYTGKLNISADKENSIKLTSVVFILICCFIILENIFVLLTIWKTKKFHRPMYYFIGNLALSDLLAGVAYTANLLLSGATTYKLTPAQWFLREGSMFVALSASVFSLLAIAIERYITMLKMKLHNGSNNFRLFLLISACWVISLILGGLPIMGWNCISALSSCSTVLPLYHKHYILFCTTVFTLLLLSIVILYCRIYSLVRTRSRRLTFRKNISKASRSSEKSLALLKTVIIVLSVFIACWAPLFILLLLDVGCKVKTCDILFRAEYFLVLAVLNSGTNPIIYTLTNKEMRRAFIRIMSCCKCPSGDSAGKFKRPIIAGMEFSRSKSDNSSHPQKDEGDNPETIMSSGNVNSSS

[9] = target: Sphingosine 1-phosphate receptor 4 (Homo sapiens, UniProt O95977); assay: Fluorescence dose response cell-based high throughput screening assay for antagonists of the Sphingosine 1-Phosphate Receptor 4 (S1P4). [Related pubchem assays: 1524 (Confirmation in triplicates.), 1510 (Primary screen.)]; type: functional
Sphingosine 1-phosphate receptor 4, sequence (O95977 whole entry): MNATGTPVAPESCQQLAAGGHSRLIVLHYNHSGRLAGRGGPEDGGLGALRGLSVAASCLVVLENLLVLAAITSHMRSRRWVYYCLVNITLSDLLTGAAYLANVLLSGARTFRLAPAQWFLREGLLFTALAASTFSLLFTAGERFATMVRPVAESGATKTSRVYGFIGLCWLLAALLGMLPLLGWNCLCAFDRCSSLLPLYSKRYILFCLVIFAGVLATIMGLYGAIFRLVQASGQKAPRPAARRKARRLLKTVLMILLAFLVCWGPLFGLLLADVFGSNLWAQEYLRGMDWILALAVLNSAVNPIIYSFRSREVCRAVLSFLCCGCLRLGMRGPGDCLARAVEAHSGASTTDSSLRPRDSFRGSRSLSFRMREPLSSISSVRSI

[10] = target: T6, Interleukin-8; assay: Dose Response confirmation of uHTS small molecule hits for cystic fibrosis induced NFkb Inhibitors in a TNFa-induced IL8 counterscreen.; type: functional; conditions: read-out: IC50_Mean
[11] = target: T7, Microphthalmia-associated transcription factor (Homo sapiens, UniProt O75030); assay: TRPM1 promoter luciferase signal decrease, dose response, MITF inhibitor project, cell-based, SK-MEL-5, cherry-picked, set 3 (AID 493073); type: functional
T7 sequence (O75030 whole entry): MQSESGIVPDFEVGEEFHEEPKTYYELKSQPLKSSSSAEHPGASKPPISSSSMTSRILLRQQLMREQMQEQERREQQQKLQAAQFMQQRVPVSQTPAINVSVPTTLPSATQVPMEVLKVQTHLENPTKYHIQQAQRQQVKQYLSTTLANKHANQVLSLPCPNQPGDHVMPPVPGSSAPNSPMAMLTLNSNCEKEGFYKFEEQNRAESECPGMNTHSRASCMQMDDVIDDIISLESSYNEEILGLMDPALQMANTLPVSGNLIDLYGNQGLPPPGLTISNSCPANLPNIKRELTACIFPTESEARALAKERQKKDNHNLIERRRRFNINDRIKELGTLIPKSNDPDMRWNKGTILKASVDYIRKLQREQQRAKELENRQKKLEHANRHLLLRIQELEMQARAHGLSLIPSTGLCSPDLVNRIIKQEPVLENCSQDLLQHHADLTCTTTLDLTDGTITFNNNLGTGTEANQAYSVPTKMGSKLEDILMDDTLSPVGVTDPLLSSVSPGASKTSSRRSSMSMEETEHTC

IC50 [1]: > 43.8 µM (not active) | IC50 [2]: > 35 µM (not active) | IC50 [3]: > 35 µM (not active) | IC50 [4]: > 43.8 µM (not active)
SMILES: COc1ccc(-c2noc(CN3CCCCC3c3nccn3C)n2)cc1 (stereo unspecified)

EC50 [5]: 23.5 µM (active)
SMILES: O=C1c2ccccc2C(=O)N1CCCc1nc2ccccc2c(=O)n1CCCn1ccnc1

IC50 [6]: 7.81 µM (active) | IC50 [7]: 0.967 µM (active) | IC50 [8]: 9.72 µM (active) | IC50 [9]: 2.34 µM (active) | IC50 [10]: 43 µM (inactive) | AC50 [11]: 10.9 µM (active)
SMILES: CN(CCC#N)C(=O)COC(=O)c1ccccc1C(=O)c1ccc(Cl)c([N+](=O)[O-])c1
